In patent US7595395B2, “Gabaergic agents to treat memory deficits” (priority 2005, dated 2009):
Where two headings read alike, the source gives them in different places.

Assays:
[1] = target: α4β3γ2 benzodiazepine receptor GABA(A) isoform (UniProt P18507+P48169); experiment: Radioligand competition binding, α4β3γ2 BzR/GABA(A) isoform; set-up: species or system human and rat
Description: The affinity of all ligands at the 6 major recombinant GABAA/BzR subtypes was measured by competition for [^3H]Ro15-1788 binding to HEK-T cells expressing both human and rat GABAA/Bz receptors of composition α1β2γ2 (α1), α2β2γ2 (α2), α3β2γ2 (α3), α4β2γ2 (α4), α5β2γ2 (α5) and α6β2γ2 (α6). It is well known that the β2 and β3 subunits can be interchanged with no effect on Bz ligand affinity or efficacy. […] These studies are similar to those performed in the laboratory of Bryan Roth who has already expressed the receptors employing the work of Kucken et. al. and Gray et. al.
In brief, for membrane preparations, the cells were scraped on to the ice and diluted into 5 mL of phosphate buffered saline (pH=7.40) and cells pelleted by centrifugation for 5 min. at 4° C. The pellet was resuspended in 1 mL of 50 mM Tris-acetate buffer (pH 7.4) and centrifuged at 18,000 g for 20 min. […] Each pellet were diluted to 6 mL and then 100 μL of membranes were incubated with approximately 1 nM final concentration of [^3H]Ro 15-1788 in a total volume of 250 μL together with serial dilutions of test compound for 90 min. on ice. The membranes were harvested in polyethyleneimine-pretreated Whatman GF/C filters and after drying and addition of scintillation cocktail, counted in a scintillation counter. […]

[2] = target: T1, α5β3γ2 benzodiazepine receptor GABA(A) isoform (UniProt P18507+P31644); experiment: Radioligand competition binding, α5β3γ2 BzR/GABA(A) isoform; set-up: Ki α5; other: text; HEK-T cells (Roth et al.); species or system human and rat; details: read-out: Ki α5; HEK-T cells (Roth et al.)
T1 sequence (P18507 1-475): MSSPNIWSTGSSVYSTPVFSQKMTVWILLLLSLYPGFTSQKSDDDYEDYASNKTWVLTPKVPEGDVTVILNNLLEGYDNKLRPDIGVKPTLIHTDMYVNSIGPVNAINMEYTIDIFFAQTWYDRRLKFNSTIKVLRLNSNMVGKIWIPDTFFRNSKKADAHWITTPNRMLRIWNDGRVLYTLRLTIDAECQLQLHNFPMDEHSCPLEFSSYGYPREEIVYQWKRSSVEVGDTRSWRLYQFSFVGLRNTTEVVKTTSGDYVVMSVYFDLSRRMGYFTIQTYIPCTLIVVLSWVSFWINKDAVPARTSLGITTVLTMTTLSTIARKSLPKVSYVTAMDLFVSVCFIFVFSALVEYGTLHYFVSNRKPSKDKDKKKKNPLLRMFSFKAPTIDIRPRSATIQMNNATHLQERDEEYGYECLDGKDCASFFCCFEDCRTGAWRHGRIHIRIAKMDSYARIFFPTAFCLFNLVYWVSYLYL
T1 sequence (P31644 1-462): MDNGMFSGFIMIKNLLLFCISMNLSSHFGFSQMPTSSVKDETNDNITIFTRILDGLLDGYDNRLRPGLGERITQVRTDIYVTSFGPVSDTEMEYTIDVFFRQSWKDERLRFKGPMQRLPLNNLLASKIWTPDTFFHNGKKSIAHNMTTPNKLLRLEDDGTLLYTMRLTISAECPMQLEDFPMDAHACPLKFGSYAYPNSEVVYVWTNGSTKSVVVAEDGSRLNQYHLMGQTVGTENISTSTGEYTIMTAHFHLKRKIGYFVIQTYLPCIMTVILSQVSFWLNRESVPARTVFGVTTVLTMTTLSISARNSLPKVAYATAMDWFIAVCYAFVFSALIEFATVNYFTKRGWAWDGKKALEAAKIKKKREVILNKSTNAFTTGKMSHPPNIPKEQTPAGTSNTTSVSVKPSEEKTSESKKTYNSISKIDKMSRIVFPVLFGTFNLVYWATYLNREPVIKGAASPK

[3] = system: full panel of receptors (5ht1a ... σ1, σ2); experiment: Full panel receptor binding (secondary binding)
Excerpt: FIGS. 28 A and B provide a full panel Receptor data for certain compounds of the invention. Data on the full panel (secondary binding) are Ki values. The Ki values are reported in nanomolar concentrations, In the Full panel data various receptors were used, including 5ht1a, 5ht1b, 5ht1d, 5ht1e, 5ht2a, 5ht2b, 5ht2c, 5ht3, 5ht5a, 5ht6, 5ht7, α1A, α1B, α2A, α2B, α2C, β1, β2, CB1, CB2, D1, D2, D3, D4, D5, DAT, DOR, H1, H2, H3, H4, imidazoline 1, KOR, M1, M2, M3, M4, M5, MDR1, MOR, NET, NMDA, SERT, σ1, and σ2. 5-HT receptors, 5ht1a, 5ht1b, 5ht1d, 5ht1e, 5ht2a, 5ht2b, 5ht2c, 5ht3, 5ht5a, 5ht6, 5ht7, are receptors for the neurotransmitter and peripheral signal mediator serotonin, also known as 5-hydroxytryptamine or 5-HT. α1A, α1B, α2A, α2B, α2C, β1, β2; CB1, CB2 are adrenoceptors; cannabinoid receptors, D1, D2, D3, D4, D5 are dopamine receptors; DAT is dopamine transporter receptor; DOR is δ-Opioid receptor; H1, H2, H3, H4 are histamine receptors; KOR is κ-Opioid receptor; M1, M2, M3, M4, M5 are muscarinic acetylcholine receptors; MDR represents multidrug resistance in the course of exposure to various compounds that are used in modern anticancer therapy, including cytotoxic drugs and differentiating agents. […]

Structure (SMILES)	Ki ([1]; Table I, means of two determinations, read-out: Ki α4)	Ki ([1]; untitled table of lead compounds, unit inferred, read-out: α4)	Ki [2]	binding to other receptors in full panel (in words) [3]
CCOC(=O)c1ncn2c1CN=C(c1ccccc1)c1cc(-c3ccccc3)ccc1-2 [DM-I-81, Ethyl 8-phenyl-6-phenyl-4H-benzo[f]imidazo[1,5-a][1,4]diazepine-3-carboxylate]	> 2000 nM	> 2000 nM		
CCc1ccc2c(c1)C(=O)N(C)Cc1c(C(=O)OCCCOC(=O)c3ncn4c3CN(C)C(=O)c3cc(CC)ccc3-4)ncn1-2 [XLi356, 1,3-Bis(8-ethyl-5,6-dihydro-5-methyl-6-oxo-4H-imidazo[1,5a][1,4]benzodiazepine-3-carboxy)propyl diester]			107 nM	do not bind to other receptors at levels of concern
